Where “and” joins values, the source holds several entries; their conditions need not be identical. Equal values may be shown once.
What was measured:
[1] = Nitrous oxide formed in the oxidation of U-labeled [N15]-cyanamide by catalase/glucose-glucose oxidase using gas chromatography
[2] = Nitrous oxide formed in the oxidation of 15NH2-labeled cyanamide by catalase/glucose-glucose oxidase using gas chromatography.
[3] = Nitrous oxide formed in the oxidation of unlabeled cyanamide by catalase/glucose-glucose oxidase using gas chromatography.

With N#CN the N20 formed [1] was 538 nM, the N20 formed [2] was 186 nM and the N20 formed [3] was 497 nM and 440 nM.

Reference: ChEMBL document CHEMBL1125018, “Evidence for nitroxyl in the catalase-mediated bioactivation of the alcohol deterrent agent cyanamide” (J Med Chem, 1990)
